Test results reported in patent publication US20030207933A1, “Compositions and methods for increasing the sensitivity of apoptosis-resistant tumor cells to inducers of apoptosis” (priority 2002, published 2003).

Tested on: HL-60 Bcl-2 cells
Assay: DNA fragmentation (release of 3H-labeled DNA fragments) in Bcl-2-transfected HL-60 cells
Format: cell-based, human
Conditions: Exp 1; etoposide 5 μM + compound 10 μM

Compared with `Cl.Cl.Cl.Cl.O.O=C(O)CN1CCCN(CC(=O)O)CCN(CC(=O)O)CCCN(CC(=O)O)CC1` [1,4,8,11-tetraazacyclotetra-decane-1,4,8,11-tetraacetic acid tetrahydrochioride hydrate], `Cc1nc(-c2nc(C)c(C)[nH]2)[nH]c1C` [2,2′-bis(4,5-dimethyl-imidazole)] is higher in “% DNA Fragmentation” value: 0% for the first, 2% for the second.

Compared with `N#Cc1nc[nH]c1C#N` [4,5-dicyanoimidazole], `CC1(C)CC(C#N)CC(C)(C)N1[O]` [4-cyano tempo] is lower in “% DNA Fragmentation” value: 10% for the first, 2% for the second.

Compared with `[Co+2].c1ccc2c(c1)-c1nc-2nc2[n-]c(nc3nc(nc4[n-]c(n1)c1ccccc41)-c1ccccc1-3)c1ccccc21` [cobalt (II) pthalocyanine], `C=CC1=C(C)c2cc3[n-]c(cc4[n-]c(cc5nc(cc1n2)C(C)=C5C=C)c(C)c4CCC(=O)O)c(CCC(=O)O)c3C.O.[Fe+2]` [hematin] is lower in “% DNA Fragmentation” value: 9% for the first, 2% for the second.

deuterporphyrin IX dimethyl ester was tested, and the “% DNA Fragmentation” value was 8%.

Same assay, conditions: Exp 2; etoposide 10 μM + compound 10 μM

Going from `C=CC1=C(C)/C(=C/c2[nH]c(Cc3[nH]c(/C=C4\NC(=O)C(C)=C4C=C)c(C)c3CCC(=O)O)c(CCC(=O)O)c2C)NC1=O` [bilirubin] to `C=CC1=C(C)c2cc3[nH]c(cc4nc(cc5[nH]c(cc1n2)c(C)c5CCC(=O)O)C(CCC(=O)O)=C4C)c(C)c3C=C` [protoporphyrin IX], the “% DNA Fragmentation” value falls from 17% to 3%.

First: CC1=C(CCC(=O)O)c2cc3nc(cc4[nH]c(cc5[nH]c(cc1n2)c(C)c5CCC(=O)O)c(CCC(=O)O)c4C)C(CCC(=O)O)=C3C [coproporphyrin]
Second: C1=Cc2cc3ccc(cc4ccc(cc5nc(cc1n2)C=C5)[nH]4)[nH]3 [porphyin]
The “% DNA Fragmentation” value of the first is higher: 15% for the first, 10% for the second.

Same assay, conditions: Exp 3; etoposide 5 μM + compound 20 μM

Compared with `C=CC1=C(C)c2cc3[n-]c(cc4[n-]c(cc5nc(cc1n2)C(C)=C5C=C)c(C)c4CCC(=O)O)c(CCC(=O)O)c3C.[Fe+2]` [Fe protoporphyrin IX], `C=CC1=C(C)c2cc3[n-]c(cc4[n-]c(cc5nc(cc1n2)C(C)=C5C=C)c(C)c4CCC(=O)O)c(CCC(=O)O)c3C.[Sn+4]` [Sn protoporphyrin IX] is lower in “% DNA Fragmentation” value: 17% for the first, 5% for the second.

Compared with `C=CC1=C(C)c2cc3[n-]c(cc4[n-]c(cc5nc(cc1n2)C(C)=C5C=C)c(C)c4CCC(=O)O)c(CCC(=O)O)c3C.[Zn+2]` [Zn protoporphyrin IX], `C=CC1=C(C)/C(=C/C2=NC(=C\c3[nH]c(/C=C4\NC(=O)C(C)=C4C=C)c(C)c3CCC(=O)O)/C(CCC(=O)O)=C2C)NC1=O` [biliverdin] is higher in “% DNA Fragmentation” value: 19% for the first, 20% for the second.

Same assay, conditions: Exp 4; etoposide 5 μM + compound 10 μM

Going from `CC(C)(C)c1ccc2c(c1)-c1nc3nc(nc4[nH]c(nc5[nH]c(nc-2n1)c1cc(C(C)(C)C)ccc51)c1cc(C(C)(C)C)ccc41)-c1ccc(C(C)(C)C)cc1-3` [2,9,16,23-tetra-tert-butyl-29H, 31H-phthalocyanine] to `Cc1ccc(-c2c3nc(c(-c4ccc(C)cc4)c4ccc([nH]4)c(-c4ccc(C)cc4)c4nc(c(-c5ccc(C)cc5)c5ccc2[nH]5)C=C4)C=C3)cc1` [5,10,15,20-tetra-p-tolyl-21H,23H-porphine], the “% DNA Fragmentation” value rises from 0% to 15%.

With `Br.Br.CCC1=C(C)c2cc3[nH]c(cc4[nH]c(cc5nc(cc1n2)C(C)=C5CC)c(C)c4CC)c(C)c3CC` [etioporphyrin I dihydrobromide] the “% DNA Fragmentation” value was 25%.

Same assay, conditions: Exp 5; etoposide 10 μM + compound 10 μM

With `CCC1=C(C)C(=O)N/C1=C\c1[nH]c(C)c(CC)c1C` [W-145] the “% DNA Fragmentation” value was 28%.
